Reference: ChEMBL document CHEMBL6092145, “Recent advances in the design of small molecular drugs with acrylamides covalent warheads” (Bioorg Med Chem, 2024)
Values belong to the molecule of their own block, whether it stands above or below them.

Experiments:
[1] = biological target: Tyrosine-protein kinase Lck (Homo sapiens, UniProt P06239)
Description: Inhibition of LCK (unknown origin) using TK as substrate incubated for 30 mins by HTRF assay

[2] = biological target: Tyrosine-protein kinase Lyn (Homo sapiens, UniProt P07948)
Description: Inhibition of LYN (unknown origin)

NCI-H358 [3] = assay: cells; type: functional, cell-based; conditions: Homo sapiens
Description: Antiproliferative activity against human NCI-H358 cells assessed as reduction in cell viability

[4] = biological target: Tyrosine-protein kinase BTK (Homo sapiens, UniProt Q06187)
Description: Inhibition of BTK (unknown origin)

[5] = biological target: Tyrosine-protein kinase Blk (Homo sapiens, UniProt P51451)
Description: Inhibition of BLK (unknown origin)

NCI-H358 [6] = assay: cells; type: functional, cell-based; conditions: Homo sapiens, NCI-H358, 72 h
Description: Antiproliferative activity against human NCI-H358 cells assessed as reduction in cell growth incubated for 72 hrs by cell-titer glo assay

clinical = conditions: human, in vivo, po
Description: Oral bioavailability in human

[7] = biological target: Epidermal growth factor receptor (Homo sapiens, UniProt P00533)
Chain of Epidermal growth factor receptor (P00533 whole entry): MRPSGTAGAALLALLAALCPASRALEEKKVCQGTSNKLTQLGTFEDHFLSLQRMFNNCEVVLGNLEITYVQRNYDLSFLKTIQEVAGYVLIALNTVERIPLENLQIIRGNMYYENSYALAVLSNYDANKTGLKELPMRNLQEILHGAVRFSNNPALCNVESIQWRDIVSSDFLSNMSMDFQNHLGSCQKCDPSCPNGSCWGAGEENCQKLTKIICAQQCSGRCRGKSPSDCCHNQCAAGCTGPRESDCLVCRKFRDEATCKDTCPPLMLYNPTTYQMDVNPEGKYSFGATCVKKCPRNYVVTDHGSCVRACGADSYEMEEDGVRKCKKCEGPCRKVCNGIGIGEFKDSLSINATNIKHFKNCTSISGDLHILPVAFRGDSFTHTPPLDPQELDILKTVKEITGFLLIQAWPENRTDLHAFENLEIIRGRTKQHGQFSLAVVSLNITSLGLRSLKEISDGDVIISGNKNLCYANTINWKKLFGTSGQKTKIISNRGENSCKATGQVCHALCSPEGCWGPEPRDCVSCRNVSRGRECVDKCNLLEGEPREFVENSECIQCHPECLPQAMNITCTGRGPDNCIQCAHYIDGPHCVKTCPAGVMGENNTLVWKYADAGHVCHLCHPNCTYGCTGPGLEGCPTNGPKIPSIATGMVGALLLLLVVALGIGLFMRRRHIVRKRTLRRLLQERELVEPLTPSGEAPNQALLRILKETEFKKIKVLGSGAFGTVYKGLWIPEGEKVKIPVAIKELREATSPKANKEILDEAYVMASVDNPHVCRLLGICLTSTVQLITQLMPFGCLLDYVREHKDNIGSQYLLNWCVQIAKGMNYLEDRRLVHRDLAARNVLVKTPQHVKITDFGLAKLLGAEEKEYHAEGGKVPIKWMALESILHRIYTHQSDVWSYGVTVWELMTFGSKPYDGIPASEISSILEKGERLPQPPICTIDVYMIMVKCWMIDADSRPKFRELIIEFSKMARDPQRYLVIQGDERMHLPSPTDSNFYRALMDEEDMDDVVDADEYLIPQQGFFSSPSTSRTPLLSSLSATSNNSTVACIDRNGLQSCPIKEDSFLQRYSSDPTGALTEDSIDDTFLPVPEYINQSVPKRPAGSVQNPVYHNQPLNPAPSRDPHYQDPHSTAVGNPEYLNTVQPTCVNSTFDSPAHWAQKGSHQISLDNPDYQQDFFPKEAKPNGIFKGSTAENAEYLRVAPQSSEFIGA

Chain of Tyrosine-protein kinase Blk (P51451 whole entry): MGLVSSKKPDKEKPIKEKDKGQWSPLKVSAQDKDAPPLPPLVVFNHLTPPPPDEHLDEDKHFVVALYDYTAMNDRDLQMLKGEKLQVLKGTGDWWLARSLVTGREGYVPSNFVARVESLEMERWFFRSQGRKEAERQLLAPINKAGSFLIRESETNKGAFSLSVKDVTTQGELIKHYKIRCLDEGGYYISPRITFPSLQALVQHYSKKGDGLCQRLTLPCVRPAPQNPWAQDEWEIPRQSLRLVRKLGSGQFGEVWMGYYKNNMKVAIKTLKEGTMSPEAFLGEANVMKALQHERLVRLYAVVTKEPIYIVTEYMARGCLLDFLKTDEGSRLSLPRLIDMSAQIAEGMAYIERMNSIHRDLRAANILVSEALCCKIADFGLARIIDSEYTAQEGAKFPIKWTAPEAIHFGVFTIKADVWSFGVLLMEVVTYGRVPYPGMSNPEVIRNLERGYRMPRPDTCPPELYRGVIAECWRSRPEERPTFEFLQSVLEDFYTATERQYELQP
Chain of Tyrosine-protein kinase BTK (Q06187 whole entry): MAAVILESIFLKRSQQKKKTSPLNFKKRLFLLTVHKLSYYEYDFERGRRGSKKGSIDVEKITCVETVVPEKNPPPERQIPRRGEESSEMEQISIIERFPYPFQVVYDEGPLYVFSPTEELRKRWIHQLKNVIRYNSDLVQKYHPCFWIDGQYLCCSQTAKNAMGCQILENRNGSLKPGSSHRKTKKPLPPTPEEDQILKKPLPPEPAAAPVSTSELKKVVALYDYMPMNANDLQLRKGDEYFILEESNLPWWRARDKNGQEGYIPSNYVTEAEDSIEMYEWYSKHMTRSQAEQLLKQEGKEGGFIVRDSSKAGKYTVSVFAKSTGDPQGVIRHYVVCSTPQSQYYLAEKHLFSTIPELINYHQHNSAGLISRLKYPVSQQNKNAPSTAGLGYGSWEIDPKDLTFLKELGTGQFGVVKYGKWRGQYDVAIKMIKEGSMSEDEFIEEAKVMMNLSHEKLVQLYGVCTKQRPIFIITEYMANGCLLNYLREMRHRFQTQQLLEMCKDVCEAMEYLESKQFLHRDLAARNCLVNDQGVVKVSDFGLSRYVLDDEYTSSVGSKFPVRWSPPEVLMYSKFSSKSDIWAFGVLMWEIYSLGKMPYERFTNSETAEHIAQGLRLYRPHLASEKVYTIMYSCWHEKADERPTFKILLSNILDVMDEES
Chain of Tyrosine-protein kinase Lck (P06239 whole entry): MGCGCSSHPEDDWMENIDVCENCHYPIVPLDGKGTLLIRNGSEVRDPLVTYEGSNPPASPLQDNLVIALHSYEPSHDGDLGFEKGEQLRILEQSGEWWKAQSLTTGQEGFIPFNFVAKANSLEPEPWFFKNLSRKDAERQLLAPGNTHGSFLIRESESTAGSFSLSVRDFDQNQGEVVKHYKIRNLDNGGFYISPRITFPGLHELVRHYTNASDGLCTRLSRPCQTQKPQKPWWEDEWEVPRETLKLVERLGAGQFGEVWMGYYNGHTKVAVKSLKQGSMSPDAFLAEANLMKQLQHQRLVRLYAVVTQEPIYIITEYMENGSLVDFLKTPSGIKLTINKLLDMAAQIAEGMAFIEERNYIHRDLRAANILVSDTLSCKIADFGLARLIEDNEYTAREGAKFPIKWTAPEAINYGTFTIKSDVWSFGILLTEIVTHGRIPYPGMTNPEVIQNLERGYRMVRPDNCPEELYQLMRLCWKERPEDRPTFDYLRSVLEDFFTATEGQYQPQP
Chain of Tyrosine-protein kinase Lyn (P07948 whole entry): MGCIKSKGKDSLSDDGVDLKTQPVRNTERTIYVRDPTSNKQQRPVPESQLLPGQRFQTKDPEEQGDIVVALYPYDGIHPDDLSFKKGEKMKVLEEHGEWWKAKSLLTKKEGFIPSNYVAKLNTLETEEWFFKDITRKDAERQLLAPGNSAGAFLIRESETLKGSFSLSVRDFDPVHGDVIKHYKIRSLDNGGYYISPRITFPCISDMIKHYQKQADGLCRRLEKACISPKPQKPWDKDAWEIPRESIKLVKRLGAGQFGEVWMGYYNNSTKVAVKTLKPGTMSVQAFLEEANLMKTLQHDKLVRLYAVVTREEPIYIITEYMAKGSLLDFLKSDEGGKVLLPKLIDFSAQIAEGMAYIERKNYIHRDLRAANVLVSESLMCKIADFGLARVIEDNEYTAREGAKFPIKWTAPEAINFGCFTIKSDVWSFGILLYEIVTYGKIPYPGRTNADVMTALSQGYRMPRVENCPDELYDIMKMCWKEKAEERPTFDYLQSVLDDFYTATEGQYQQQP

- IC50 [1]: 4.6 nM
- IC50 [2]: 2.5 nM
SMILES: Nc1ncnc2c1c(-c1ccc(Oc3ccccc3)cc1)nn2C1CCCC1

- IC50 (NCI-H358 [3]): 939 nM
SMILES: C=CC(=O)N1CCN(c2ncnc3c(F)c(-c4c(O)cccc4F)c(Cl)cc23)CC1

- IC50 [4]: 0.4 nM
- IC50 [5]: 0.5 nM
SMILES: C=CC(=O)NC1Cn2c(c(-c3ccc(Oc4ccccc4)cc3)c3c(N)ncnc32)C1=C (centres undefined)

- IC50 [5]: > 1000 nM
SMILES: C=CC(=O)N1CCN(C(=O)CNc2cc(Cl)c(Cl)cc2OC)CC1

- IC50 (NCI-H358 [3]): 250 nM
SMILES: C=CC(=O)N1CC(N2CCN(C(=O)CNc3cc(C4(C)CC4)c(Cl)cc3O)CC2)C1

- IC50 (NCI-H358 [6]): 1 nM
- bioavailability (clinical): 16.9%
SMILES: C=CC(=O)N1CCN(c2nc(OC[C@@H]3CCCN3C)nc3c2CCN(c2cccc4cccc(Cl)c24)C3)C[C@@H]1CC#N

- IC50 (NCI-H358 [6]): 520 nM
SMILES: C=C(F)C(=O)N1CCN(c2nc(OC[C@@H]3CCCN3CCCOCCC(=O)N[C@H](C(=O)N3C[C@H](O)C[C@H]3C(=O)NCc3ccc(-c4scnc4C)cc3)C(C)(C)C)nc3c2CCN(c2cccc4cccc(Cl)c24)C3)C[C@@H]1CC#N

- IC50 [5]: > 10000 nM
SMILES: CN(C)CCSSCCNC(=O)C1CCN(C(=O)CSc2ccc(Cl)cc2)CC1

- IC50 [5]: > 10000 nM
SMILES: CN(C)CCSSCCC(=O)Nc1cc(-c2cccs2)[nH]n1

- IC50 [7]: > 10000 nM
SMILES: CN(C)CCSSCCC(=O)NC1CCN(C(=O)COc2ccc(Cl)cc2Cl)CC1

- IC50 (NCI-H358 [3]): 68 nM
SMILES: C=CC(=O)N1CCN(c2nc(=O)n(-c3c(C)ccnc3C(C)C)c3nc(-c4c(O)cccc4F)c(F)cc23)[C@@H](C)C1 [SOTORASIB]
